Test results reported in patent publication US20240065999A1, “Ophthalmic Formulation Containing a Dopaminergic Prodrug that may be Combined with One or More Agents” (The Board of Trustees of the Leland Stanford Junior …, priority 2020, published 2024).
Values after ≈ are worked out from the molar mass of the structure shown. Structures can show the parent of a compound that is named as a salt. Where two headings read alike, the source gives them in different places.

Columns and labels:
[1] = tested on: myopic progression; conditions: ATOM trial, cited from earlier work
[2] = pig, 24 h, 0.5 %
Excerpt: (§1) To assess the vitreous penetration, dopamine (dopamine hydrochloride; Sigma-Aldrich, St. Louis, Mo., USA), and etilevodopa (BOC Sciences, Shirley, N.Y., USA) were freshly dissolved in phosphate buffered saline solution (PBS, pH 7.4; Aniara, West Chester, Ohio, USA) at the concentration of 0.5%, whereas levodopa (Sigma-Aldrich) was freshly dissolved in distilled water at 0.5%. Thirty microliters of each solution was placed onto the cornea of enucleated porcine eyes (Animal Technologies, Tyler, Tex., USA; at least six porcine eyes were studied for each treatment), which were no more than 30 hours since enucleation and were maintained on ice throughout experimentation. PBS was used as a vehicle control. The vitreous humor sample was collected after 24 hours for quantitative measurement of dopaminergic derivative level using an enzyme-linked immunosorbent assay (ELISA) kit according to the manufacturers' protocol (dopamine ELISA kit; Immuno-Biological Laboratories, Inc., Minneapolis, Minn., USA).

[3] = In vivo pharmacokinetics after a single topical treatment of etilevodopa 10% in Long Evans rat eyes; conditions: single topical etilevodopa 10%, noncompartmental analysis
Experimental: To assess the short-term pharmacokinetic effect, 5 μL of etilevodopa 10% was instilled onto a rat eye. At one, two, four, eight, and 24 hours, rats were sacrificed (at least three rats were studied at each time point). Serum was obtained by allowing the blood sample to clot at room temperature for 0.5 to 1 hour, followed by centrifuging at 13,000 rpm for 10 minutes (MiniSpin Eppendorf; Thermo Fisher Scientific, Waltham, Mass., USA). Serum was then frozen at −80° C. until tested. Eyes were enucleated and collected for quantitative measurement of dopaminergic derivative levels. Concentrations of dopaminergic derivative in both whole eye and vitreous/retina were measured for pharmacokinetic evaluation. Briefly, tissue samples were incubated with 150 μL lysis buffer (CelLytic MT Cell Lysis Reagent; Sigma-Aldrich) for 0.5 to 1 hour, followed by centrifuge at 13,000 rpm for 10 minutes, and the supernatant was collected. All samples were immediately frozen at −80° C. until tested. The level of dopaminergic derivative was measured in both serum and eye using a dopamine ELISA kit (Immuno-Biological Laboratories, Inc.) according to the manufacturer's instruction.

[4] = tested on: Long Evans rat eyes; assay: Clinical examination, OCT imaging and ERG after once-daily topical etilevodopa; format: in vivo
Experimental: Etilevodopa 10% 5 μL was administered as an eye drop once daily to one eye of each rat for 28 consecutive days, and the contralateral eye received PBS as a control. To assess the tolerability after administering etilevodopa over time, clinical examination was conducted at 14 and 28 days during treatment. To assess retinal structure and function, spectral-domain OCT (Spectralis HRA+OCT instrument; Heidelberg Engineering, Heidelberg, Germany) and full-field ERG (D300; Diagnosys LLC, Lowell, Mass., USA) were also performed at 14 and 28 days. Briefly, rats were first anesthetized with intraperitoneal injection of a mixture of ketamine hydrochloride (75 mg/kg; Hospira, Inc., Lake Forest, Ill., USA) and xylazine (5 mg/kg; Bedford Laboratories, Bedford, Ohio, USA). The corneas were topically anesthetized with tetracaine 0.5% (Alcon Laboratories, Inc. Fort Worth, Tex., USA), and the pupils were dilated with tropicamide 1% (Akorn, Inc., Lake Forest, Ill., USA) and phenylephrine hydrochloride 2.5% (Akorn, Inc.).
For clinical examination, 1% methylcellulose and a plastic coverslip were applied to the cornea to enhance visualization. A Zeiss OPMI MDO S5 Microscope (Prescott's, Inc., Monument, Col., USA) with an Excelis camera (ACCU-SCOPE, Inc., Commack, N.Y., USA) was used to digitally record ocular photos.
For OCT, 1% methylcellulose and a coverslip were placed on the anesthetized rat cornea. A commercially available 78-D double aspheric fundus lens (Volk Optical, Inc., Mentor, Ohio, USA) was mounted in front of the OCT and images were taken with proprietary software (Eye Explorer, version 3.2.1.0; Heidelberg Engineering). A raster scan of 19 equally spaced horizontal B-scans centered on the optic nerve was captured.
For full-field ERG, rats were dark-adapted overnight. A gold wire loop was placed on the cornea of both eyes, a reference electrode was placed subcutaneously on the nose, and a ground electrode was placed in the tail. ERG responses were recorded from both eyes simultaneously. The flash intensity was set at six increasing intensities of 0.0001, 0.001, 0.01, 0.1, 1, and 3 cd·s/m2. ERG recordings were averaged over 10 presentations of a single one-millisecond flash with a 10-second interstimulus interval. The A-wave amplitude was measured from the baseline to trough, while the B-wave was measured from the trough to peak.

[5] = tested on: rat eyes; assay: Histology and immunohistochemistry (H&E, cleaved caspase-3, TUNEL) of rat eyes; format: in vivo, Long Evans rat; conditions: 5 μL etilevodopa 10% once daily, 14 and 28 days
Experimental: To assess for inflammation and apoptosis, 5 μL of etilevodopa 10% was administered as a once-daily eye drop to one eye of each rat, and the contralateral eye received PBS as a control. Rat eyes were enucleated at 14 and 28 days after treatment and fixed in 4% paraformaldehyde (VWR, Visalia, Calif., USA) overnight at 4° C., dehydrated in graded series of sucrose and alcohol, frozen, and cut into 12 μm sections onto glass slides.
For inflammation, frozen sections were first fixed in 10% formalin (Sigma-Aldrich) for 20 minutes and washed in water, followed by staining the nuclei with hematoxylin for three minutes and washing in water again. The slides were then dipped in lithium carbonate (bluing agent) for 45 seconds, washed in water, immersed in 95% ethanol (2-3 dips), and stained with eosin for another three minutes. After dehydrating in 95% ethanol for one minute and then in 100% ethanol for two minutes, the slides were mounted with Cytoseal 60 and imaged using Nikon Eclipse E800 microscope (Nikon Corp., Tokyo, Japan).
For apoptosis, sections were stained with cleaved caspase-3 (Cell Signaling, Beverly, Mass., USA). Briefly, sections were first washed with washing buffer (0.1% Triton X-100 in PBS) three times for five minutes each, blocked with 5% bovine serum albumin (Fraction V; Sigma-Aldrich) in washing buffer for one hour, followed by incubating in primary antibody-cleaved caspase-3 (1:200 in washing buffer) for two hours. After washing three times for five minutes each, sections were incubated in secondary antibody (AlexaFluor 488 donkey anti-rabbit IgG; 1:400; Invitrogen, Waltham, Mass., USA) in washing buffer for one hour, followed by washing another three times and mounting with 4′,6-diamidino-2-phenylindole (DAPI)-containing mounting media (Vectashield; Vector Laboratories, Burlingame, Calif., USA). Slides were imaged using Leica DMi8 microscope (Leica Microsystems Inc., Buffalo Grove, Ill., USA). Terminal deoxynucleotidyl transferase dUTP nick end labeling (TUNEL) assay was also performed to further detect apoptosis using TUNEL label mix kit (Sigma-Aldrich). […]

[6] = Maximum solubility / achievable concentration of topical solutions; format: physicochemical
Excerpt: PBS was used as a vehicle control.

[7] = Observation of rat behavior during the 28-day study; format: in vivo; conditions: once-daily topical etilevodopa
[8] = Ex vivo ocular penetration of dopamine and dopaminergic derivatives in enucleated porcine eyes (dopamine ELISA); conditions: topical
Excerpt: as §1

[9] = ibopamine for hypotony, before 24 weeks; cited from earlier work
[10] = tested on: axial elongation; assay: Reduction of axial elongation by levodopa in chicks (Thomson et al.); format: in vivo; conditions: Gallus gallus; calculated using a chick vitreous volume of 200 μL; read-out: EC50 as intravitreal concentration
[11] = tested on: axial elongation; conditions: chick, Thomson et al., cited from earlier work
[12] = tested on: intravitreal dopamine; conditions: chick eyes with negative lenses, after three days of treatment; cited from earlier work
[13] = 1% atropine nightly in one eye over two years

In the case of `CN1[C@@H]2CC[C@H]1C[C@@H](OC(=O)C(CO)c1ccccc1)C2` (some centres unmarked) [atropine], the diopter difference [1, 13] is given as “~+0.8 diopter”, the “reduction of myopic progression” value [1, 13] is given as 77% and the axial length ([1]; 1% atropine nightly over two years) is given as “remained unchanged”.
For `NCCc1ccc(O)c(O)c1` [dopamine, dopamine hydrochloride], the “concentration of dopaminergic derivatives in the vitreous” value [2] was 375.1 ng/mL and the “fold higher intravitreal concentration as compared to etilevodopa 10%” value [2] was 10 fold.
For `CCOC(=O)[C@@H](N)Cc1ccc(O)c(O)c1` [etilevodopa], the AUC0→∞ ([3]; blood) was 11.2 ng·h/mL, the AUC0→∞ ([3]; retina/vitreous) was 818 ng·h/mL and the AUC0→∞ ([3]; whole eye) was 4300 ng·h/mL. The direct toxicity ([4]; four-week application as a topical eye drop) was “no evidence of direct toxicity”, the “ERG A-wave amplitude, treated vs control eyes” value ([4]; in vivo) was “no statistically significant difference” and the “ERG B-wave amplitude, treated vs control eyes” value ([4]; in vivo) was “no statistically significant difference”. For the same compound, the OCT retinal structure ([4]; in vivo) was “did not demonstrate any qualitative structural changes”, the “clinical eye photos (inflammatory response, corneal opacity, fundus abnormalities, conjunctival redness)” value ([4]; in vivo) was “no evidence of inflammatory response, corneal opacity, fundus abnormalities, or conjunctival redness” and the “cornea and lens clarity” value ([4]; in vivo) was “remained clear”. For the same compound, the “overall retina morphology and blood vessels” value ([4]; in vivo) was “remained unchanged”, the “retinal detachment, edema or inflammation” value ([4]; in vivo) was “No retinal detachment, edema or inflammation was observed” and the “TUNEL+ DAPI+ cells” value [5] was “no TUNEL+ DAPI+ cells observed”. For the same compound, the “hematoxylin and eosin staining of the retina” value [5] was “no infiltration of inflammatory cells, fibrosis or morphological changes”, the “number of cleaved caspase-3+ DAPI+ cells, treatment vs control” value [5] was “no statistically significant change” and the maximum solubility ([6]; PBS, pH 7.4) was 10%. For the same compound, the “rat behavior (activity levels, aggression, feeding pattern, weight gain)” value [7] was “no obvious changes in rat behavior” and the “corneal penetration as compared to levodopa at a given concentration” value [8] was “did not exhibit enhanced corneal penetration”.
For `CNCCc1ccc(OC(=O)C(C)C)c(OC(=O)C(C)C)c1` [ibopamine], the “patients who stopped using the drug due to follicular conjunctivitis or irritation” value [9] is listed as 8 of 17.
With `N[C@@H](Cc1ccc(O)c(O)c1)C(=O)O` [levodopa] the maximum concentration achievable ([6]; distilled water) was 0.5%, the EC50 [10] was roughly 7.9 ng/mL (≈ 0.0401 µM) and the “concentration of dopaminergic derivatives in the vitreous” value [2] was 11.9 ng/mL. For the same compound, the EC50 ([11]; intravitreal administration, 10 μL dose, read-out: EC50 for a reduction of axial elongation) was 0.8 µM and the “EC50 for a reduction of axial elongation” value ([11]; topical levodopa) was 0.05%.
In the case of “insulin (Insulin B chain AANQHLCGSHLVEALYLVCGERGFFYSPKA; Insulin A chain GIVEQCCHNTCSLYQLENYCN; UniProt P67970 25-54; P67970 87-107, looked up) [insulin injected into chick eyes treated with negative lenses]”, the “increase in intravitreal dopamine” value [12] is listed as 2 fold.
